Assays:
[1] = tested on: IL-4 induced STAT6 phosphorylation in JAK3 Cys905Ser knockin BMDMs; experiment: Inhibitor washout, IL-4 induced STAT6 phosphorylation, JAK3 Cys905Ser knockin BMDMs; format: cell-based, mouse; conditions: inhibitor 2 h, washed 3 times in PBS; 10 μM TL6-144, 100 μM PF-06651600
Method: To test this, cells were treated with a high concentration of inhibitor for 2 h before being washed 3 times in PBS and then incubated in media without inhibitor for 0.5 to 24 h. […] To confirm this was not the case, similar experiments were done in JAK3 Cys905Ser knockin cells.
BMDMs were isolated from wild type and JAK3 Cys905Ser knockin mice. […] The macrophages were then either stimulated with 10 ng/ml IL-4 for 30 min or washed 3 times in PBS and then incubated in media without inhibitor for the indicated times. The cells were then stimulated with IL-4 for 30 min and STAT6 phosphorylation determined by immunoblotting using levels of ERK1/2 as a loading control.
Briefly, bone marrow was flushed in PBS from the femurs and tibias of mice. Cells were cultured on bacterial grade plastic for 7 days at 37 °C, 5% CO2. […]
Cells were lysed directly into SDS sample buffer and aliquots run on 10% polyacrylamide gels using standard methods[51]. Proteins were transferred onto nitrocellulose membranes, and specific proteins were detected by immunoblotting. […] Bands were detected using Clarity ECL reagents from BioRad and imaged on a Licor Odyssey Fc system. Quantification was carried out using Licor Image Studio software. After correction for the ERK1/2 levels to account for loading differences, percentage inhibition was calculated relative to the IL-4 stimulated condition.

MKK1 = MKK1 (Homo sapiens, UniProt Q02750); experiment: Selectivity screen MKK1; format: biochemical; conditions: 1 µM inhibitor, mean
Method: (§1) For the in vitro kinase assay, JAK3 (5–20 mU diluted in 50 mM Tris pH 7.5, 0.1 mM EGTA, 0.05% β-mercaptoethanol, 1 mg/ml BSA) was assayed against PDKtide ([…]) in a final volume of 25.5 µl containing 50 mM Tris pH 7.5, 0.1 mM EGTA, 0.05% β-mercaptoethanol, 100 µM substrate peptide, 10 mM magnesium acetate and 0.02 mM [33P-γ-ATP] (50–1000 cpm/pmole) and incubated for 30 min at room temperature. Assays were started by the addition of the ATP and stopped by addition of 5 µl of 0.5 M (3%) orthophosphoric acid and then harvested onto P81 Unifilter plates with a wash buffer of 50 mM orthophosphoric acid. To determine the Km for ATP, assays were run using 1, 5, 10, 20, 50, 100, 200, 400, 500 μM ATP and Km derived by non-linear regression fitting to the Michaelis–Menten equation v = Vmax[S]/(Km + [S]). IC50 values for inhibitors via non-linear regression using a parameter model: Y = Bottom + (Top–Bottom)/(1 + (IC50/X)^HillSlope). Non-linear regression was carried out in Prism (version 8). In vitro selectivity screen was carried out as described previously.

IRAK1 = IRAK1 (Homo sapiens, UniProt P51617); experiment: Selectivity screen IRAK1; format: biochemical; conditions: 1 µM inhibitor, mean
Method: as §1

CK1δ = CK1δ (Homo sapiens, UniProt P48730); experiment: Selectivity screen CK1δ; format: biochemical; conditions: 1 µM inhibitor, mean
Method: as §1

PINK = PINK (Tribolium castaneum, UniProt D6WMX4); experiment: Selectivity screen PINK; format: biochemical; conditions: 1 µM inhibitor, mean
PINK, sequence (D6WMX4 6-570): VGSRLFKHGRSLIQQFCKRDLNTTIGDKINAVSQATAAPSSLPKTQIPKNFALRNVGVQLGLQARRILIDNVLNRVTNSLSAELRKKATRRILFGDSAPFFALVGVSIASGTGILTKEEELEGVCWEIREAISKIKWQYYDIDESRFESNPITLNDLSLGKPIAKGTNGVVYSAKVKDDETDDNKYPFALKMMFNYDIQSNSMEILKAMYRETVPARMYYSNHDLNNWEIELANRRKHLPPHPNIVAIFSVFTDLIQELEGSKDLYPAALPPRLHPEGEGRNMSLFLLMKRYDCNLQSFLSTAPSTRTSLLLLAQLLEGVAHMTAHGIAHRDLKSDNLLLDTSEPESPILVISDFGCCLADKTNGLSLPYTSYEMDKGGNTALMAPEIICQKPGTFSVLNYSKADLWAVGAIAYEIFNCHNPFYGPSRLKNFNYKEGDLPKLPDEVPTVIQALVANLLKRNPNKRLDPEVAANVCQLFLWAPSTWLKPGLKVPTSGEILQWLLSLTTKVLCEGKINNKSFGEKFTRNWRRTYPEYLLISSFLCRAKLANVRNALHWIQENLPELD
Method: as §1

MKK6 = MKK6 (Homo sapiens, UniProt P52564); experiment: Selectivity screen MKK6; format: biochemical; conditions: 1 µM inhibitor, mean
Method: as §1

GSK3b = GSK3b (Homo sapiens, UniProt P49841); experiment: Selectivity screen GSK3b; format: biochemical; conditions: 1 µM inhibitor, mean
Method: as §1

IGF-1R = IGF-1R (Homo sapiens, UniProt P08069); experiment: Selectivity screen IGF-1R; format: biochemical; conditions: 1 µM inhibitor, mean
Method: as §1

PLK1 = PLK1 (Homo sapiens, UniProt P53350); experiment: Selectivity screen PLK1; format: biochemical; conditions: 1 µM inhibitor, mean
Method: as §1

PIM2 = PIM2 (Homo sapiens, UniProt Q9P1W9); experiment: Selectivity screen PIM2; format: biochemical; conditions: 1 µM inhibitor, mean
Method: as §1

RSK2 = RSK2 (Homo sapiens, UniProt P51812); experiment: Selectivity screen RSK2; format: biochemical; conditions: 1 µM inhibitor, mean
Method: as §1

WNK1 = WNK1 (Homo sapiens, UniProt Q9H4A3); experiment: Selectivity screen WNK1; format: biochemical; conditions: 1 µM inhibitor, mean
Method: as §1

CAMKKb = CAMKKb (Homo sapiens, UniProt Q96RR4); experiment: Selectivity screen CAMKKb; format: biochemical; conditions: 1 µM inhibitor, mean
CAMKKb, sequence (Q96RR4 whole entry): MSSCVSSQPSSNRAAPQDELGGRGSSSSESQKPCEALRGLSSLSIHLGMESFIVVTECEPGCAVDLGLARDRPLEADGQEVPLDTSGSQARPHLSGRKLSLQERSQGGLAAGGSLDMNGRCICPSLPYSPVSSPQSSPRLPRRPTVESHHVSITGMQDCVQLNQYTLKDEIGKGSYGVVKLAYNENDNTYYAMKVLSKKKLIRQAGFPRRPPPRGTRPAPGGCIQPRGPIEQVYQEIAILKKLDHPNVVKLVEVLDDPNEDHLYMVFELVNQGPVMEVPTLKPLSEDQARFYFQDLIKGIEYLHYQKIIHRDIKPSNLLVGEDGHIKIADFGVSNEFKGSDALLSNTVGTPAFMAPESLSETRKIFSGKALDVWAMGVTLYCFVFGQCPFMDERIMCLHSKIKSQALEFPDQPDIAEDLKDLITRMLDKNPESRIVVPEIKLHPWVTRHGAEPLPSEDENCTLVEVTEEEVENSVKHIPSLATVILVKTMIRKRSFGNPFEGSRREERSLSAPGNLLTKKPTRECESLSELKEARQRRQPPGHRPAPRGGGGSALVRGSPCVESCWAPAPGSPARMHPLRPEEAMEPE

MEKK1 = MEKK1 (Homo sapiens, UniProt Q13233); experiment: Selectivity screen MEKK1; format: biochemical; conditions: 1 µM inhibitor, mean
Method: as §1

PAK5 = PAK5 (Homo sapiens, UniProt Q9P286); experiment: Selectivity screen PAK5; format: biochemical; conditions: 1 µM inhibitor, mean
Method: as §1

PKD1 = PKD1 (Homo sapiens, UniProt Q15139); experiment: Selectivity screen PKD1; format: biochemical; conditions: 1 µM inhibitor, mean
Method: as §1

TTBK1 = TTBK1 (Homo sapiens, UniProt Q5TCY1); experiment: Selectivity screen TTBK1; format: biochemical; conditions: 1 µM inhibitor, mean
Method: as §1

ULK1 = ULK1 (Homo sapiens, UniProt O75385); experiment: Selectivity screen ULK1; format: biochemical; conditions: 1 µM inhibitor, mean
Method: as §1

DYRK1A = DYRK1A (Homo sapiens, UniProt Q13627); experiment: Selectivity screen DYRK1A; format: biochemical; conditions: 1 µM inhibitor, mean
Method: as §1

MLK1 = MLK1 (Homo sapiens, UniProt P80192); experiment: Selectivity screen MLK1; format: biochemical; conditions: 1 µM inhibitor, mean
Method: as §1

IKKb = IKKb (Homo sapiens, UniProt O14920); experiment: Selectivity screen IKKb; format: biochemical; conditions: 1 µM inhibitor, mean
IKKb, sequence (O14920 whole entry): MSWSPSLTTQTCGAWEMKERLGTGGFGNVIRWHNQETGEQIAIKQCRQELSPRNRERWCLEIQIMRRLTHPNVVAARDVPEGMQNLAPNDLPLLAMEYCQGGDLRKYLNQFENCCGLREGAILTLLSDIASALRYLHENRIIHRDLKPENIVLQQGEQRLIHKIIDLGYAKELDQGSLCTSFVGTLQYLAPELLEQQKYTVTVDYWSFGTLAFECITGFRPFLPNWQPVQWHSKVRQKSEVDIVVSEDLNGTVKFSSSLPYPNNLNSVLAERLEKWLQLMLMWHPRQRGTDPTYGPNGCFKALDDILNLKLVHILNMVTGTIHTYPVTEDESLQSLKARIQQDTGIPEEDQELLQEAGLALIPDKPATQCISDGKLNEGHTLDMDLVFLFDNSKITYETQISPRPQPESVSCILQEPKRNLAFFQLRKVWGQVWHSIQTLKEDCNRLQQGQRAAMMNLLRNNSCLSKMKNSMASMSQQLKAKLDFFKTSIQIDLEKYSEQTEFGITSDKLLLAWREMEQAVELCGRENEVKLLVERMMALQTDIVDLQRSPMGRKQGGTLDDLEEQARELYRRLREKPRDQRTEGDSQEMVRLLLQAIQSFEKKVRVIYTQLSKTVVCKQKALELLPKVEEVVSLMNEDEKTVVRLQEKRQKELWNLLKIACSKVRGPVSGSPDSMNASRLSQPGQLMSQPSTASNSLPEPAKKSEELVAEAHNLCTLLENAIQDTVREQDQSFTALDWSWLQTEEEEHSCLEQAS
Method: as §1

TrkA = TrkA (Homo sapiens, UniProt P04629); experiment: Selectivity screen TrkA; format: biochemical; conditions: 1 µM inhibitor, mean
TrkA, sequence (P04629 33-796): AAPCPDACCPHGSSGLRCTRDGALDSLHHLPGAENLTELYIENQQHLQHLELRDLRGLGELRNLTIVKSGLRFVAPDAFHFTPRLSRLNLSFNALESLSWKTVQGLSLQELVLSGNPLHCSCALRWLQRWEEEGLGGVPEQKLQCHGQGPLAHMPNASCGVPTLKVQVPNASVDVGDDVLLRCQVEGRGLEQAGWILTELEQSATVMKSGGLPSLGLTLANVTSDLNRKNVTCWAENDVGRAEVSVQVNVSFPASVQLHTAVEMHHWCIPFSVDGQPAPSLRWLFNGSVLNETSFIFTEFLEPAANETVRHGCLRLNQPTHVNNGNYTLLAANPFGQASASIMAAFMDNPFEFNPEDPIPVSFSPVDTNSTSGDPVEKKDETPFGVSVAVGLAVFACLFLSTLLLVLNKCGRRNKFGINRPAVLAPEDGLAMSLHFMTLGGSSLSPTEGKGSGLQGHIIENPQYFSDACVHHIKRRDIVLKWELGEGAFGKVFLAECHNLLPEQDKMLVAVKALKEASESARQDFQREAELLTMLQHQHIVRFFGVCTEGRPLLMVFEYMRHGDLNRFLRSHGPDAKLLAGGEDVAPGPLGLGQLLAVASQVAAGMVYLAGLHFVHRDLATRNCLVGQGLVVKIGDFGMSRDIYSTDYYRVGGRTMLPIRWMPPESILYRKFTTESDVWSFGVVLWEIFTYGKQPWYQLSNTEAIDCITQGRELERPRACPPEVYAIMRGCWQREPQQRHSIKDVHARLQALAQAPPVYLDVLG
Method: as §1

ERK2 = ERK2 (Homo sapiens, UniProt P28482); experiment: Selectivity screen ERK2; format: biochemical; conditions: 1 µM inhibitor, mean
ERK2, sequence (P28482 whole entry): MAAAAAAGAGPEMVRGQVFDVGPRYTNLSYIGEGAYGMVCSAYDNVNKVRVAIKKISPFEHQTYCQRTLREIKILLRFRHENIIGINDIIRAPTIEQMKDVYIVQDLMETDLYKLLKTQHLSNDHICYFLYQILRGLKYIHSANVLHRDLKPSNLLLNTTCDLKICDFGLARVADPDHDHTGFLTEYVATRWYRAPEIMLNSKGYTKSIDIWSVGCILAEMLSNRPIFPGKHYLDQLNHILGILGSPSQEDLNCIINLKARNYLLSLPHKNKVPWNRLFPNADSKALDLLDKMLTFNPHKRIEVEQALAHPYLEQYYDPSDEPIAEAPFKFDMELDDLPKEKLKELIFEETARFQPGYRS
Method: as §1

BTK = BTK (Homo sapiens, UniProt Q06187); experiment: Selectivity screen BTK; format: biochemical; conditions: 1 µM inhibitor, mean
TSSK1 = TSSK1 (Homo sapiens, UniProt Q9BXA7); experiment: Selectivity screen TSSK1; format: biochemical; conditions: 1 µM inhibitor, mean
Method: as §1

DYRK2 = DYRK2 (Homo sapiens, UniProt Q92630); experiment: Selectivity screen DYRK2; format: biochemical; conditions: 1 µM inhibitor, mean
Method: as §1

CSK = CSK (Homo sapiens, UniProt P41240); experiment: Selectivity screen CSK; format: biochemical; conditions: 1 µM inhibitor, mean
Method: as §1

PAK6 = PAK6 (Homo sapiens, UniProt Q9NQU5); experiment: Selectivity screen PAK6; format: biochemical; conditions: 1 µM inhibitor, mean
Method: as §1

p38g MAPK = p38g MAPK (Homo sapiens, UniProt P53778); experiment: Selectivity screen p38g MAPK; format: biochemical; conditions: 1 µM inhibitor, mean
Method: as §1

OSR1 = OSR1 (Homo sapiens, UniProt O95747); experiment: Selectivity screen OSR1; format: biochemical; conditions: 1 µM inhibitor, mean
Method: as §1

CDK2-Cyclin A = CDK2-Cyclin A (Homo sapiens, UniProt P24941); experiment: Selectivity screen CDK2-Cyclin A; format: biochemical; conditions: 1 µM inhibitor, mean
IR = IR (Homo sapiens, UniProt P06213); experiment: Selectivity screen IR; format: biochemical; conditions: 1 µM inhibitor, mean
IR, sequence (P06213 28-1382): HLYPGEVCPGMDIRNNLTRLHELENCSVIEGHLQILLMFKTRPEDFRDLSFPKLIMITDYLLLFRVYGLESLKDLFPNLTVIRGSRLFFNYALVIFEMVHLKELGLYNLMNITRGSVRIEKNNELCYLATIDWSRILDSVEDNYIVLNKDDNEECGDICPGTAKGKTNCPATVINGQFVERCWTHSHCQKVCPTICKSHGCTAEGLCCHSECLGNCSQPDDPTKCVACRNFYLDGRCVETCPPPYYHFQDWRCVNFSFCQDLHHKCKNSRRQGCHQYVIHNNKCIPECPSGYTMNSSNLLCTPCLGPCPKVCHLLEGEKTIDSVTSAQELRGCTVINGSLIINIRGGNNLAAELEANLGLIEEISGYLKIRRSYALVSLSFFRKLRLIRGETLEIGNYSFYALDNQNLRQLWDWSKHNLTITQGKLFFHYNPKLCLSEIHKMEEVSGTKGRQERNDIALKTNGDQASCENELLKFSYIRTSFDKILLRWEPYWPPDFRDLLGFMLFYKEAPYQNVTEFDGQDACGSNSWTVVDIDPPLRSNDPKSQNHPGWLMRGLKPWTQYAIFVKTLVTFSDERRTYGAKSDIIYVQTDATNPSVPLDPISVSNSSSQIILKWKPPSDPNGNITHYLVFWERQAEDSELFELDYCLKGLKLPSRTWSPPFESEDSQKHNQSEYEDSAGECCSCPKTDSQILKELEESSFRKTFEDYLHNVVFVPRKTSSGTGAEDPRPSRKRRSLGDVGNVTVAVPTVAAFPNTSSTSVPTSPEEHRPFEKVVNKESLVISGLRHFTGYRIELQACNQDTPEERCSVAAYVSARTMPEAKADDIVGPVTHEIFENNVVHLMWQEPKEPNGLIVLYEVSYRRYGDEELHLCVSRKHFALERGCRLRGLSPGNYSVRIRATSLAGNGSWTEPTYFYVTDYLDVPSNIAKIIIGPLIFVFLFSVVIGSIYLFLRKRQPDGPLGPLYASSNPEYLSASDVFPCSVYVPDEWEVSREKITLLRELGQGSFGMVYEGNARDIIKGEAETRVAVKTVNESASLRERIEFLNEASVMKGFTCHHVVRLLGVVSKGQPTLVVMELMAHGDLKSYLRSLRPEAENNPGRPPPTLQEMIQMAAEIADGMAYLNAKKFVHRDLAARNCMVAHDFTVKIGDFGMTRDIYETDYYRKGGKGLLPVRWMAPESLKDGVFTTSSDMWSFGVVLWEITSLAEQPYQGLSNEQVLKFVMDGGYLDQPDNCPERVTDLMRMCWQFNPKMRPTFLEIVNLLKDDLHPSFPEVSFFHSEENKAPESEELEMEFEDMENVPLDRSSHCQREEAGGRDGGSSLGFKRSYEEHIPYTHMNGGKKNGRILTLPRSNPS
Method: as §1

BRSK1 = BRSK1 (Homo sapiens, UniProt Q8TDC3); experiment: Selectivity screen BRSK1; format: biochemical; conditions: 1 µM inhibitor, mean
EPH-A4 = EPH-A4 (Homo sapiens, UniProt P54764); experiment: Selectivity screen EPH-A4; format: biochemical; conditions: 1 µM inhibitor, mean
Method: as §1

RIPK2 = RIPK2 (Homo sapiens, UniProt O43353); experiment: Selectivity screen RIPK2; format: biochemical; conditions: 1 µM inhibitor, mean
Method: as §1

MAPKAP-K3 = MAPKAP-K3 (Homo sapiens, UniProt Q16644); experiment: Selectivity screen MAPKAP-K3; format: biochemical; conditions: 1 µM inhibitor, mean
MAPKAP-K3, sequence (Q16644 whole entry): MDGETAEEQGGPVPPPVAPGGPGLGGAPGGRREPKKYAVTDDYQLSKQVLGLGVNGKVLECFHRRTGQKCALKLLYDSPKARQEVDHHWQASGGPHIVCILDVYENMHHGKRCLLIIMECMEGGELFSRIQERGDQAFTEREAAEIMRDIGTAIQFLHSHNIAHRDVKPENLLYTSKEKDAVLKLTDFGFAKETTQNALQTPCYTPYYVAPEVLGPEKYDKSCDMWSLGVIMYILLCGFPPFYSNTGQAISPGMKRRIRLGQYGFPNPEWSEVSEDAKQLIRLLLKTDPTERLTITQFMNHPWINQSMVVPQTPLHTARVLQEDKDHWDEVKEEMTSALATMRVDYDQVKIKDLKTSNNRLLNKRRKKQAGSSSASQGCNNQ
Method: as §1

Compound | inhibition of IL-4 induced STAT6 phosphorylation after inhibitor washout, JAK3 Cys905Ser knockin BMDMs [1] | activity remaining in the presence of the inhibitor: MKK1 (MKK1) | activity remaining in the presence of the inhibitor: IRAK1 (IRAK1) | activity remaining in the presence of the inhibitor: CK1δ (CK1δ) | activity remaining in the presence of the inhibitor: PINK (PINK) | activity remaining in the presence of the inhibitor: MKK6 (MKK6) | activity remaining in the presence of the inhibitor: GSK3b (GSK3b) | activity remaining in the presence of the inhibitor: IGF-1R (IGF-1R) | activity remaining in the presence of the inhibitor: PLK1 (PLK1) | activity remaining in the presence of the inhibitor: PIM2 (PIM2) | activity remaining in the presence of the inhibitor: RSK2 (RSK2) | activity remaining in the presence of the inhibitor: WNK1 (WNK1) | activity remaining in the presence of the inhibitor: CAMKKb (CAMKKb) | activity remaining in the presence of the inhibitor: MEKK1 (MEKK1) | activity remaining in the presence of the inhibitor: PAK5 (PAK5) | activity remaining in the presence of the inhibitor: PKD1 (PKD1) | activity remaining in the presence of the inhibitor: TTBK1 (TTBK1) | activity remaining in the presence of the inhibitor: ULK1 (ULK1) | activity remaining in the presence of the inhibitor: DYRK1A (DYRK1A) | activity remaining in the presence of the inhibitor: MLK1 (MLK1) | also measured
C=CC(=O)N1C[C@H](Nc2ncnc3[nH]ccc23)CC[C@@H]1C [PF-06651600, 1-((2S,5R)-5-((7H-Pyrrolo[2,3-d]pyrimidin-4-yl)amino)-2-methylpiperidin-1-yl)prop-2-en-1-one, reference compound] | not retained at any time post washout | – | – | – | – | – | – | – | – | – | – | – | – | – | – | – | – | – | – | – | –
C=CC(=O)Nc1cccc(CNc2nc(Nc3ccc(N4CCN(C)CC4)cc3OC)ncc2Cl)c1 [TL6-144] | complete loss of inhibition | 79 | 81 | 83 | 107 | 104 | 87 | 5 | 107 | 97 | 73 | 81 | 6 | 95 | 94 | 46 | 80 | 65 | 90 | 20 | activity remaining in the presence of the inhibitor: IKKb (IKKb): 100; activity remaining in the presence of the inhibitor: TrkA (TrkA): 59; activity remaining in the presence of the inhibitor: ERK2 (ERK2): 106; activity remaining in the presence of the inhibitor: BTK (BTK): 37; activity remaining in the presence of the inhibitor: TSSK1 (TSSK1): 34; activity remaining in the presence of the inhibitor: DYRK2 (DYRK2): 92; activity remaining in the presence of the inhibitor: CSK (CSK): 113; activity remaining in the presence of the inhibitor: PAK6 (PAK6): 77; activity remaining in the presence of the inhibitor: p38g MAPK (p38g MAPK): 88; activity remaining in the presence of the inhibitor: OSR1 (OSR1): 47; activity remaining in the presence of the inhibitor: CDK2-Cyclin A (CDK2-Cyclin A): 87; activity remaining in the presence of the inhibitor: IR (IR): 11; activity remaining in the presence of the inhibitor: BRSK1 (BRSK1): 103; activity remaining in the presence of the inhibitor: EPH-A4 (EPH-A4): 104; activity remaining in the presence of the inhibitor: RIPK2 (RIPK2): 92; activity remaining in the presence of the inhibitor: MAPKAP-K3 (MAPKAP-K3): 119
C=CC(=O)Nc1cccc(CNc2nc(Nc3ccc(N4CCOCC4)cc3)ncc2Cl)c1 [TL8-52] | – | 84 | 54 | 110 | 110 | 105 | 118 | 24 | 114 | 100 | 53 | 112 | 22 | 103 | 90 | 86 | 100 | 48 | 100 | 3 | activity remaining in the presence of the inhibitor: IKKb (IKKb): 104; activity remaining in the presence of the inhibitor: TrkA (TrkA): 23; activity remaining in the presence of the inhibitor: ERK2 (ERK2): 97; activity remaining in the presence of the inhibitor: BTK (BTK): 44; activity remaining in the presence of the inhibitor: TSSK1 (TSSK1): 57; activity remaining in the presence of the inhibitor: DYRK2 (DYRK2): 87; activity remaining in the presence of the inhibitor: CSK (CSK): 73; activity remaining in the presence of the inhibitor: PAK6 (PAK6): 99; activity remaining in the presence of the inhibitor: p38g MAPK (p38g MAPK): 93; activity remaining in the presence of the inhibitor: OSR1 (OSR1): 98; activity remaining in the presence of the inhibitor: CDK2-Cyclin A (CDK2-Cyclin A): 84; activity remaining in the presence of the inhibitor: IR (IR): 15; activity remaining in the presence of the inhibitor: BRSK1 (BRSK1): 86; activity remaining in the presence of the inhibitor: EPH-A4 (EPH-A4): 99; activity remaining in the presence of the inhibitor: RIPK2 (RIPK2): 71; activity remaining in the presence of the inhibitor: MAPKAP-K3 (MAPKAP-K3): 62
